26 compounds from patent publication US8003658B2, “Quinazoline derivatives for inhibiting cancer cell growth and method for the preparation thereof” (Hanmi Holdings Co., Ltd., priority 2004, dated 2011) can be followed below.

The IC50 is the point on the concentration scale where inhibition reaches its midpoint.

The test system of assay [1] is A431 (ATCC: CRL-1555). Put plainly: Test of cancer cell growth inhibition (SRB), A431. The note with it: read-out: IC50 A431.
In assay [2] the test system is SK-Br3 (ATCC: HTB-30). Put plainly: Test of cancer cell growth inhibition (SRB), SK-Br3. The note with it: read-out: IC50 SK-Br-3.
Where [3] appears, read: EGFR overexpressed A431, 72 hours, SRB.
[4] abbreviates: Erb-B2 overexpressed SK-Br3, 72 hours, SRB.

Where two headings read alike, the source gives them in different places.

In the case of `O=C(CCCNC(=O)C1CC1)Nc1ccc2ncnc(Nc3ccc(OCc4cccc(F)c4)c(Cl)c3)c2c1` [Example 92, cyclopropylcarboxylic acid (3-{4-[3-chloro-4-(3-fluoro-benzyloxy)-phenylamino]-quinazolin-6-ylcarbamoyl}-propyl)-amide], the 50% inhibitory concentration (IC50) in assay [1] (Homo sapiens, A-431, 72 h) came out at 293 nM; in assay [2] (Homo sapiens, SK-BR-3, 72 h), 80 nM.

In the case of `CS(=O)(=O)CC(=O)NCCC(=O)Nc1ccc2ncnc(Nc3ccc(OCc4cccnc4)c(Cl)c3)c2c1` [Example 133, N-{4-[3-chloro-4-(pyridin-3-ylmethoxy)-phenylamino]-quinazolin-6-yl}-3-(2-methanesulfonyl-acetylamino)-propionamide], the concentration for half-maximal inhibition (IC50) in assay [1] (Homo sapiens, A-431, 72 h) came to 7260 nM; in assay [2] (Homo sapiens, SK-BR-3, 72 h) it was 1110 nM.

On to `CSCC[C@H](NC(=O)CS(C)(=O)=O)C(=O)Nc1ccc2ncnc(Nc3ccc(OCc4cccc(F)c4)c(Cl)c3)c2c1` [Example 8, (2S)—N-{4-[3-chloro-4-(3-fluoro-benzyloxy)-phenylamino]-quinazolin-6-yl}-2-(2-methanesulfonyl-acetamino)-4-methanesulfanyl-butyramide], for which the IC50 in assay [1] (setting [3]) was found to be 308 nM; in assay [2] (setting [4]), 190 nM.

For `C=CC(=O)N1CCC[C@H]1C(=O)Nc1cc2c(Nc3ccc(OCc4ccccn4)c(C)c3)ncnc2cc1F` [Example 177, (2S)-1-acryloyl-pyrrolidine-2-carboxylic acid {7-fluoro-4-[3-methyl-4-(pyridin-2-ylmethoxy)-phenylamino]-quinazolin-6-yl}-amide], the 50% inhibitory concentration (IC50) came to 78 nM in assay [1] (Homo sapiens, A-431, 72 h) and 9 nM in assay [2] (Homo sapiens, SK-BR-3, 72 h).

With `CS(=O)(=O)CC(=O)NCCC(=O)Nc1ccc2ncnc(Nc3ccc(F)c(Cl)c3)c2c1` [Example 53-2, N-[4-(3-chloro-4-fluoro-phenylamino)-quinazolin-6-yl]-3-(2-methanesulfonyl-acetylamino)-propionamide], the half-inhibitory concentration (IC50) in assay [1] (Homo sapiens, A-431, 72 h) was determined as 124 nM; in assay [2] (Homo sapiens, SK-BR-3, 72 h), 258 nM.

On to `COCC(=O)NCCC(=O)Nc1ccc2ncnc(Nc3ccc(OCc4ccccn4)c(Cl)c3)c2c1` [Example 129-2, N-{4-[3-chloro-4-(pyridin-2-ylmethoxy)-phenylamino]-quinazolin-6-yl}-3-(2-methoxy-acetylamino)-propionamide], for which the concentration for half-maximal inhibition (IC50) came to 490 nM in assay [1] (Homo sapiens, A-431, 72 h) and 345 nM in assay [2] (Homo sapiens, SK-BR-3, 72 h).

For the compound `C=CC(=O)N1C[C@H](O)C[C@H]1C(=O)Nc1ccc2ncnc(Nc3ccc(OCc4ccccn4)c(Cl)c3)c2c1` [Example 149, (2S,4R)-1-acryloyl-4-hydroxyl-pyrrolidine-2-carboxylic acid {4-[3-chloro-4-(pyridin-2-ylmethoxy)-phenylamino]-quinazolin-6-yl}-amide], the IC50 in assay [1] (Homo sapiens, A-431, 72 h) came out at 54 nM; in assay [2] (Homo sapiens, SK-BR-3, 72 h), 2 nM.

On to `C=CC(=O)N1CCC[C@H]1C(=O)Nc1ccc2ncnc(Nc3ccc(OCc4cccnc4)c(Cl)c3)c2c1` [Example 152, (2S)-1-acryloyl-pyrrolidine-2-carboxylic acid {4-[3-chloro-4-(pyridin-3-ylmethoxy)-phenylamino]-quinazolin-6-yl}-amide], for which the IC50 in assay [1] (Homo sapiens, A-431, 72 h) is 166 nM; in assay [2] (Homo sapiens, SK-BR-3, 72 h) it was 4 nM.

For the compound `C=CC(=O)N1CCC[C@H]1C(=O)Nc1cc2c(Nc3ccc(OCc4ccccn4)c(Cl)c3)ncnc2cc1OCCOC` [Example 213, (2S)-1-acryloyl-pyrrolidine-2-carboxylic acid {4-[3-chloro-4-(pyridin-2-ylmethoxy)-phenylamino]-7-(2-methoxyethoxy)-quinazolin-6-yl}-amide], the IC50 in assay [1] (Homo sapiens, A-431, 72 h) turned out to be 34 nM; in assay [2] (Homo sapiens, SK-BR-3, 72 h) it was 4 nM.

With `CSCC(=O)NCCCC(=O)Nc1ccc2ncnc(Nc3ccc(OCc4cccc(F)c4)c(Cl)c3)c2c1` [Example 137, N-{4-[3-chloro-4-(3-fluoro-benzyloxy)phenylamino]-quinazolin-6-yl}-4-(2-methanesulfanyl-acetylamino)-butyramide], the IC50 in assay [1] (setting [3]) was found to be 100 nM; in assay [2] (setting [4]) it was 44 nM.

On to `C=CC(=O)N1CCC[C@H]1C(=O)Nc1cc2c(Nc3ccc4c(cnn4Cc4cccc(F)c4)c3)ncnc2cc1OC` [Example 188, (2S)-1-acryloyl-pyrrolidine-2-carboxylic acid {4-[1-(3-fluoro-benzyl)-1H-indazol-5-ylamino]-7-methoxy-quinazolin-6-yl}-amide], for which the IC50 came to 24 nM in assay [1] (Homo sapiens, A-431, 72 h) and 6 nM in assay [2] (Homo sapiens, SK-BR-3, 72 h).

Take `C=CC(=O)N1CCCC1CC(=O)Nc1ccc2ncnc(Nc3ccc(OCc4ccccn4)c(Cl)c3)c2c1` (stereo not shown) [Example 154, 2-(1-acryloyl-pyrrolidin-2-yl)-N-{4-[3-chloro-4-(pyridin-2-ylmethoxy)-phenylamino]-quinazolin-6-yl}-acetamide]: the IC50 in assay [1] (Homo sapiens, A-431, 72 h) was 86 nM; in assay [2] (Homo sapiens, SK-BR-3, 72 h), 5 nM.

On to `C=CC(=O)N[C@@H](C)C(=O)Nc1cc2c(Nc3ccc(OCc4ccccn4)c(Cl)c3)ncnc2cc1OCCCOC` [Example 220, (1S)—N-(1-{4-[3-chloro-4-(pyridin-2-ylmethoxy)-phenylamino]-7-(3-methoxypropoxy)-quinazolin-6-ylcarbamoyl}-ethyl)-acrylamide], for which the IC50 in assay [1] (Homo sapiens, A-431, 72 h) was determined as 22 nM; in assay [2] (Homo sapiens, SK-BR-3, 72 h) it was 21 nM.

Turning to `O=C(CCCNC(=O)c1ccccc1)Nc1ccc2ncnc(Nc3ccc(OCc4cccc(F)c4)c(Cl)c3)c2c1` [Example 90, N-(3-{4-[3-chloro-4-(3-fluoro-benzyloxy)-phenylamino]-quinazolin-6-ylcarbamoyl}-propyl)-benzamide], the IC50 in assay [1] (Homo sapiens, A-431, 72 h) is 423 nM; in assay [2] (Homo sapiens, SK-BR-3, 72 h) it was 628 nM.

With `CC(CNC(=O)CS(C)(=O)=O)C(=O)Nc1ccc2ncnc(Nc3ccc(OCc4cccc(F)c4)c(Cl)c3)c2c1` (stereo not shown) [Example 43, N-{4-[3-chloro-4-(3-fluoro-benzyloxy)-phenylamino]-quinazolin-6-yl}-3-(2-methanesulfonyl-acetylamino)-2-methyl-propionamide], the IC50 in assay [1] (Homo sapiens, A-431, 72 h) came to 390 nM; in assay [2] (Homo sapiens, SK-BR-3, 72 h), 115 nM.

Regarding `C=CC(=O)NCCCC(=O)Nc1ccc2ncnc(Nc3ccc(F)c(Cl)c3)c2c1` [Example 98, 4-acryloylamino-N-[4-(3-chloro-4-fluoro-phenylamino)-quinazolin-6-yl]-butyramide], the half-maximal inhibitory concentration (IC50) was found to be 79 nM in assay [1] (Homo sapiens, A-431, 72 h) and 184 nM in assay [2] (Homo sapiens, SK-BR-3, 72 h).

On to `O=C(CCNC(=O)C(F)(F)F)Nc1ccc2ncnc(Nc3ccc(OCc4cccc(F)c4)c(Cl)c3)c2c1` [Example 119, N-{4-[3-chloro-4-(3-fluoro-benzyloxy)-phenylamino]-quinazolin-6-yl}-3-(2,2,2-trifluoro-acetylamino)-propionamide], for which the half-inhibitory concentration (IC50) in assay [1] (Homo sapiens, A-431, 72 h) worked out at 161 nM; in assay [2] (Homo sapiens, SK-BR-3, 72 h) it was 69 nM.

As for `C=CC(=O)N1CCCC(C(=O)Nc2ccc3ncnc(Nc4ccc(OCc5ccccn5)c(Cl)c4)c3c2)C1` (stereo not shown) [Example 162, 1-acryloyl-piperidine-3-carboxylic acid {4-[3-chloro-4-(pyridin-2-ylmethoxy)-phenylamino]-quinazolin-6-yl}-amide], the IC50 in assay [1] (setting [3]) was 286 nM; in assay [2] (Homo sapiens, SK-BR-3, 72 h), 28 nM.

On to `C=CC(=O)N1CCC[C@H]1C(=O)Nc1cc2c(Nc3ccc(OCc4ccccn4)c(Cl)c3)ncnc2cc1OCC1CC1` [Example 172, (2S)-1-acryloyl-pyrrolidine-2-carboxylic acid {4-[3-chloro-4-(pyridin-2-ylmethoxy)-phenylamino]-7-cyclopropylmethoxy-quinazolin-6-yl}-amide], for which the IC50 was ≥ 10000 nM in assay [1] (Homo sapiens, A-431, 72 h) and 4520 nM in assay [2] (Homo sapiens, SK-BR-3, 72 h).

For `C=CC(=O)N[C@H](C(=O)Nc1ccc2ncnc(Nc3ccc(OCc4ccccn4)c(Cl)c3)c2c1)C(C)C` [Example 224, (2S)-2-acryloylamino-N-{4-[3-chloro-4-(pyridin-2-ylmethoxy)-phenylamino]-quinazolin-6-yl}-3-methyl-butyramide], the IC50 in assay [1] (Homo sapiens, A-431, 72 h) amounted to 49 nM; in assay [2] (Homo sapiens, SK-BR-3, 72 h), 12 nM.

With `C=CC(=O)N1CCC[C@H]1C(=O)Nc1cc2c(Nc3ccc(OCc4ccccn4)c(Cl)c3)ncnc2cc1OCCF` [Example 187, (2S)-1-acryloyl-pyrrolidine-2-carboxylic acid [4-[3-chloro-4-(pyridin-2-ylmethoxy)-phenylamino]-7-(2-fluoro-ethoxy)-quinazolin-6-yl]-amide], the IC50 came to 22 nM in assay [1] (Homo sapiens, A-431, 72 h) and 3 nM in assay [2] (Homo sapiens, SK-BR-3, 72 h).

In the case of `O=C(CCNC(=O)Nc1ccccc1)Nc1ccc2ncnc(Nc3ccc(OCc4cccc(F)c4)c(Cl)c3)c2c1` [Example 124, N-{4-[3-chloro-4-(3-fluoro-benzyloxy)-phenylamino]-quinazolin-6-yl}-3-(3-phenyl-ureido)-propionamide], the 50% inhibitory concentration (IC50) worked out at 584 nM in assay [1] (Homo sapiens, A-431, 72 h) and 107 nM in assay [2] (Homo sapiens, SK-BR-3, 72 h).

In the case of `COCC(=O)NCCC(=O)Nc1ccc2ncnc(Nc3ccc(OCc4cccnc4)c(Cl)c3)c2c1` [Example 132-2, N-{4-[3-chloro-4-(pyridin-3-ylmethoxy)-phenylamino]-quinazolin-6-yl}-3-(2-methoxy-acetylamino)-propionamide], the IC50 amounted to 880 nM in assay [1] (Homo sapiens, A-431, 72 h) and 662 nM in assay [2] (Homo sapiens, SK-BR-3, 72 h).

On to `C[S+]([O-])CC(=O)NCCCC(=O)Nc1ccc2ncnc(Nc3ccc(OCc4cccc(F)c4)c(Cl)c3)c2c1` (stereo not shown) [Example 138, N-{4-[3-chloro-4-(3-fluoro-benzyloxy)-phenylamino]-quinazolin-6-yl}-4-(2-methanesulfinyl-acetylamino)-butyramide], for which the IC50 in assay [1] (Homo sapiens, A-431, 72 h) amounted to 102 nM; in assay [2] (Homo sapiens, SK-BR-3, 72 h), 54 nM.

For `C=CC(=O)N1CCC1C(=O)Nc1ccc2ncnc(Nc3ccc(OCc4ccccn4)c(Cl)c3)c2c1` (stereo not shown) [Example 181, 1-acryloyl-azetidine-2-carboxylic acid {4-[3-chloro-4-(pyridin-2-ylmethoxy)-phenylamino]-quinazolin-6-yl}-amide], the half-maximal inhibitory concentration (IC50) in assay [1] (setting [3]) was found to be 218 nM; in assay [2] (Homo sapiens, SK-BR-3, 72 h), 13 nM.

For the compound “(2S)-2-acryloylamino-N-{4-[3-chloro-4-(3-fluoro-benzyloxy)-phenylamino]-7-(2-methoxyethoxy)-quinazolin-6-yl}-4-methylsulfanyl-butyramide [Example 222]”, the IC50 in assay [1] (setting [3]) was found to be 25 nM; in assay [2] (setting [4]) it was 9 nM.
